Reference: patent US12209102B2, “Heterocyclic compounds and uses thereof” (Kumquat Biosciences Inc., priority 2022, dated 2025)

Columns and labels:
K-Ras G12D = molecular target: T1, K-Ras G12D (Homo sapiens, UniProt P01116, G12D); test: HTRF resonance energy transfer assay, K-Ras G12D / SOS1 interaction; format: biochemical; settings: HTRF assay of Example 5; read-out: IC50 against K-Ras G12D
T1 construct: made in house; host or cells: E. coli BL21 (DE3)
In short: (§1)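 Buffer about 5 mM HEPES pH 7.4 with ~150 mM NaCl, ~1 mM DTT, 0.05% BSA, 0.0025% (v/v) Igepal. Protein constructs used at molarity matching the IC50 range studied (e.g. ~500 nM). FRET between tagged K-Ras and hSOS1 measured after short incubation.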

K-Ras G12S = molecular target: T2, K-Ras G12S (Homo sapiens, UniProt P01116, G12S); test: HTRF resonance energy transfer assay, K-Ras G12S / SOS1 interaction; format: biochemical; settings: HTRF assay of Example 5; read-out: IC50 against K-Ras G12S
T2 construct: made in house; host or cells: E. coli BL21 (DE3)
In short: as §1

K-Ras G12V = molecular target: T3, K-Ras G12V (Homo sapiens, UniProt P01116, G12V); test: HTRF resonance energy transfer assay, K-Ras G12V / SOS1 interaction; format: biochemical; settings: HTRF assay of Example 5; read-out: IC50 against K-Ras G12V
T3 construct: made in house; host or cells: E. coli BL21 (DE3)
In short: as §1

K-Ras WT = molecular target: T4, K-Ras WT (Homo sapiens, UniProt P01116); test: HTRF resonance energy transfer assay, K-Ras WT / SOS1 interaction; format: biochemical; settings: HTRF assay of Example 5; read-out: IC50 against K-Ras WT
T4 construct: made in house; host or cells: E. coli BL21 (DE3)
In short: as §1

GP2D cells = test: Ras cellular assay, growth of cells with K-Ras G12D mutation (CellTiter-Glo); format: cell-based; settings: cell growth, Example 9, G12D mutation, read-out: IC50 against GP2D cells
A549 cells = test: Ras cellular assay, growth of cells with K-Ras G12S mutation (CellTiter-Glo); format: cell-based; settings: Homo sapiens, cell growth, Example 9, G12S mutation, read-out: IC50 against A549 cells
In short: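 Growth inhibition IC50 values come from four-parameter fits of CellTiter-Glo luminescence, read about 6 days after compound addition. G12S-mutant A549 cells (e.g. 800/well, RPMI-1640 + 10% heat-inactivated FBS) were plated in tissue-culture-treated or ultra-low-attachment 384-well format. Dosing began the following day with serial dilutions, e.g. 10 points, 3-fold.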

SW620 cells = test: Ras cellular assay, growth of cells with K-Ras G12V mutation (CellTiter-Glo); format: cell-based; settings: Homo sapiens, SW-620; cell growth, Example 9, G12V mutation; read-out: IC50 against SW620 cells
In short: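 IC50 values came from a four-parameter fit of CellTiter-Glo viability, read roughly 6 days after dosing with e.g. a 10-point threefold dilution series. G12V-mutant SW620 cells (e.g. 800 per well) had been plated the previous day in RPMI-1640/10% heat-inactivated FBS, on tissue culture-treated or ultra-low attachment plates.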

T1 sequence (P01116 1-188 isoform P01116-2 G12D): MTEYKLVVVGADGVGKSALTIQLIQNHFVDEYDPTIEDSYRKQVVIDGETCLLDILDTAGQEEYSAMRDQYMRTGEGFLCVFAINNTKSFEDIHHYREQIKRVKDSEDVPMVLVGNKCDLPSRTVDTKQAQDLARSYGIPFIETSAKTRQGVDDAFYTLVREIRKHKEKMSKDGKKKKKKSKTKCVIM
T3 sequence (P01116 1-188 isoform P01116-2 G12V): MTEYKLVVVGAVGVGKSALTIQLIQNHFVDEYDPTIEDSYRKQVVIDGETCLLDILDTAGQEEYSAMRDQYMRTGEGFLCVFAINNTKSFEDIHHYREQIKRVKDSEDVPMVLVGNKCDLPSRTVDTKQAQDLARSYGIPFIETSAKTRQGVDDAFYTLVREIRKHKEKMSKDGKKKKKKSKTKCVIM
T2 sequence (P01116 1-188 isoform P01116-2 G12S): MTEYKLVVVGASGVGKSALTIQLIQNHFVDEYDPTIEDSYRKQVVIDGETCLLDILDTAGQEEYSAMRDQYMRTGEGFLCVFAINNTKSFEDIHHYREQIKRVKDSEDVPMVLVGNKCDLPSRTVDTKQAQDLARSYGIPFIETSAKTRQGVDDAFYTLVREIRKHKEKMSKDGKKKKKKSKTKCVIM
T4 sequence (P01116 1-188 isoform P01116-2): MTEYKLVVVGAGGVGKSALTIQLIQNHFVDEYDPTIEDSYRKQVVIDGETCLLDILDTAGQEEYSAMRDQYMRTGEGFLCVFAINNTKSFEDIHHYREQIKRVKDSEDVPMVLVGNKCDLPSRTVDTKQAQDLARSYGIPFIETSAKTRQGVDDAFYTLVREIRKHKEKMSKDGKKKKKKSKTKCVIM

Compound	IC50 (K-Ras G12D)	IC50 (K-Ras G12S)	IC50 (K-Ras G12V)	IC50 (K-Ras WT)	IC50 (A549 cells)	IC50 (SW620 cells)	IC50 (GP2D cells)
N#Cc1c(N)sc2c(F)ccc(-c3c(Cl)c4c5c(nc(OC[C@@]67CCCN6C[C@H](F)C7)nc5c3F)N(CC3(C#N)CC3)CCO4)c12 [Compound 798, 2-amino-4-(8-chloro-4-((1-cyanocyclopropyl)methyl)-10-fluoro-2-(((2R,7aS)-2-fluorotetrahydro-1H-pyrrolizin-7a(5H)-yl)methoxy)-5,6-dihydro-4H-[1,4]oxazepino[5,6,7-de]quinazolin-9-yl)-7-fluorobenzo[b]thiophene-3-carbonitrile]	< 100 nM	< 100 nM	< 100 nM	< 100 nM	< 5000 nM	< 5000 nM	< 500 nM
N#Cc1c(N)sc2c(F)ccc(-c3c(Cl)c4c5c(nc(OC[C@@]67CCCN6C[C@H](F)C7)nc5c3F)N(CC(F)F)C(C(F)F)CO4)c12 (stereo partly drawn) [Compound 1105, 2-amino-4-(8-chloro-4-(2,2-difluoroethyl)-5-(difluoromethyl)-10-fluoro-2-(((2R,7aS)-2-fluorotetrahydro-1H-pyrrolizin-7a(5H)-yl)methoxy)-5,6-dihydro-4H-[1,4]oxazepino[5,6,7-de]quinazolin-9-yl)-7-fluorobenzo[b]thiophene-3-carbonitrile]	< 100 nM	< 100 nM		< 100 nM	< 5000 nM	< 5000 nM	< 500 nM
CC1Oc2c(Cl)c(-c3ccc(F)c4sc(N)c(C#N)c34)c(F)c3nc(OC[C@@]45CCCN4C[C@H](F)C5)nc(c23)N(CC(F)F)C1CC#N (stereo partly drawn) [Compound 1015, 2-amino-4-(8-chloro-5-(cyanomethyl)-4-(2,2-difluoroethyl)-10-fluoro-2-(((2R,7aS)-2-fluorotetrahydro-1H-pyrrolizin-7a(5H)-yl)methoxy)-6-methyl-5,6-dihydro-4H-[1,4]oxazepino[5,6,7-de]quinazolin-9-yl)-7-fluorobenzo[b]thiophene-3-carbonitrile]					< 5000 nM	< 5000 nM	< 500 nM

The next lines start with results.

IC50 (K-Ras G12D)	IC50 (K-Ras G12S)	IC50 (K-Ras G12V)	IC50 (K-Ras WT)	IC50 (A549 cells)	IC50 (SW620 cells)	Compound	IC50 (GP2D cells)
< 100 nM	< 100 nM	< 100 nM	< 100 nM	< 5000 nM	< 5000 nM	C[C@@H]1CN(CC(F)F)c2nc(OC[C@@]34CCCN3C[C@H](F)C4)nc3c(F)c(-c4ccc(F)c5sc(N)c(C#N)c45)c(Cl)c(c23)O1 [Compound 1133, 2-amino-4-((6R)-8-chloro-4-(2,2-difluoroethyl)-10-fluoro-2-(((2R,7aS)-2-fluorotetrahydro-1H-pyrrolizin-7a(5H)-yl)methoxy)-6-methyl-5,6-dihydro-4H-[1,4]oxazepino[5,6,7-de]quinazolin-9-yl)-7-fluorobenzo[b]thiophene-3-carbonitrile]	< 500 nM
< 100 nM	< 100 nM	< 100 nM	< 100 nM	< 5000 nM	< 5000 nM	N#Cc1c(N)sc2c(F)ccc(-c3c(Cl)c4c5c(nc(OC[C@@]67CCCN6C[C@H](F)C7)nc5c3F)N(CC(F)F)CCCO4)c12 [Compound 1218, 2-amino-4-(9-chloro-4-(2,2-difluoroethyl)-11-fluoro-2-(((2R,7aS)-2-fluorotetrahydro-1H-pyrrolizin-7a(5H)-yl)methoxy)-4,5,6,7-tetrahydro-[1,5]oxazocino[4,3,2-de]quinazolin-10-yl)-7-fluorobenzo[b]thiophene-3-carbonitrile]	< 500 nM
< 100 nM		< 100 nM	< 100 nM	< 5000 nM	< 5000 nM	N#Cc1c(N)sc2c(F)ccc(-c3c(Cl)c4c5c(nc(OC[C@@]67CCCN6C[C@H](F)C7)nc5c3F)N(CC(F)F)CC(C(F)(F)F)O4)c12 (stereo partly drawn) [Compound 1008, 2-amino-4-(8-chloro-4-(2,2-difluoroethyl)-10-fluoro-2-(((2R,7aS)-2-fluorotetrahydro-1H-pyrrolizin-7a(5H)-yl)methoxy)-6-(trifluoromethyl)-5,6-dihydro-4H-[1,4]oxazepino[5,6,7-de]quinazolin-9-yl)-7-fluorobenzo[b]thiophene-3-carbonitrile]	< 500 nM
